Target: T1, Human recombinant CXCR2 receptor (Homo sapiens, UniProt P25025)
T1 construct: Biosignal Packard Inc. (Kb, GTPγS assay); host or cells: CHO-K1
T1 sequence (P25025 1-360): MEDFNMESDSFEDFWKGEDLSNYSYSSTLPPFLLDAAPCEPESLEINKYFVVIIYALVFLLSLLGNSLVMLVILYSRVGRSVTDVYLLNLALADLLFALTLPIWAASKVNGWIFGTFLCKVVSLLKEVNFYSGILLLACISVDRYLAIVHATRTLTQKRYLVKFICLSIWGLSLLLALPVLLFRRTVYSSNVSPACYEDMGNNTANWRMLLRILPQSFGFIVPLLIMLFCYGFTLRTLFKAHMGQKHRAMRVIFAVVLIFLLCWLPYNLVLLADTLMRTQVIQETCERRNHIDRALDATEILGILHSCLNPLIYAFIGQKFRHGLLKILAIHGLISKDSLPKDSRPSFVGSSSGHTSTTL
Experiment: Receptor Binding Assay ([125I] IL-8, Ki) or [35S]-GTPγS Binding Assay (Kb) for human CXCR2 receptor
Settings: CHO-K1 membranes expressing human CXCR2; Ki from Receptor Binding Assay, Kb from [35S]-GTPγS Binding Assay; table does not say which applies per value; compounds are trifluoroacetic acid salts
Method: [^125I] IL-8 (human recombinant) was obtained from Amersham Pharmacia Biotech., with specific activity 2000 Ci/mmol. All other chemicals were of analytical grade. Human recombinant CXCR2 receptor expressed in Chinese hamster ovary cells (CHO-K1) was purchased from Euroscreen. The Chinese hamster ovary membranes were prepared according to protocol supplied by Euroscreen. Membrane protein concentration was determined using a Bio-Rad protein assay. Assays were performed in a 96-well micro plate format according the method described in White, et al., J Biol Chem., 1998, 273, 10095). Each reaction mixture contained 0.05 mg/ml CXCR2 membrane protein in 20 mM Bis-Tris-propane, pH 8.0, containing 1.2 mM MgSO4, 0.1 mM EDTA, 25 mM NaCl and 0.03% CHAPS. In addition, compound of interest was added which had been pre-dissolved in dimethylsulphoxide (DMSO) so as to reach a final concentration of between 10 μM and 0.0005 μM (final concentration of DMSO 2% (v/v)). Binding was initiated by addition of 0.02 nM ^125I-IL-8. After 2 hours at room temperature the plate was harvested using a Brandell™ 96-well harvester onto glass fibre filter plate (GF/c) blocked with 1% polyethyleneimine+0.5% BSA and washed 3 times with 25 mM NaCl, 10 mM TrisHCl, 1 mM MgSO4, 0.5 mM EDTA, 0.03% CHAPS, pH 7.4. The filter was dried at 50° C. overnight. Backseal was then applied to the plate and 50 μl of liquid scintillation fluid added. The counts were then measured on the Packard Topcount™ scintillation counter.
[^35S]-GTPγS Binding Assay for Human CXCR2 Receptor Using SPA Technology
[^35S]-GTPγS (with specific activity 1082 Ci/mmol) and wheat germ agglutinin poly vinyl toluene scintillation proximity beads were purchased from Amersham Pharmacia Biotech. The Chinese hamster ovary cell (CHO-K1) membranes expressing human CXCR2 receptors were purchased from Biosignal Packard Inc. All other chemicals were of analytical grade. White non-binding surface 96 well Optiplate™ microplates were obtained from Packard. Recombinant human IL-8 was synthesised, cloned and expressed in Escherichia coli as described previously (Lindley I, et al., Proc. Natl. Acad. Sci., 1988, 85(23):9199).
The assay was performed in duplicate in 96 well Optiplate™ microplate in a final volume of 250 μl per well. Compounds were diluted in DMSO (0.5% final concentration) and incubated in 20 mM HEPES buffer pH 7.4 containing 10 mM MgCl2, 100 mM NaCl, 1 mM EDTA plus 100 nM IL-8, 50 VM GDP and 500 pM [^35S]GTPγS per well. SPA beads (1 mg/well final concentration) were pre-mixed with the membranes ([…] final concentration) in assay buffer: 20 mM HEPES buffer pH 7.4 containing 10 mM MgCl2, 100 mM NaCl, 1 mM EDTA. The bead membrane mixture was then added to each well, plates were sealed and incubated at room temperature for 60 minutes. After which time the plate was centrifuged and immediately read on Packard TopCount™ scintillation counter, program [^35S dpm] for 1 min/well. Data was expressed as the % response to 100 nM IL-8 minus basal.
Ki data and Kb data are determined in the aforementioned Receptor Binding and [^35S]-GTPγS Binding Assays respectively.

Row | Ki [µM] | Compound
1 | 1.8 | Cn1ccc(-c2cc(C(=O)O)c3[nH]c(Nc4cccc(Cl)c4Cl)nc3c2)n1 [Example 12]
2 | 1.5 | O=C(O)c1cc(-c2ccoc2)cc2nc(Nc3cccc(Cl)c3Cl)[nH]c12 [Example 10]
3 | 1.2 | O=C(O)c1cccc2nc(Nc3ccccc3-c3ccccc3)[nH]c12 [Example 5]
4 | 0.2 | O=C(O)c1cc(F)cc2nc(Nc3cccc(Cl)c3Cl)[nH]c12 [Example 1, 2-(2,3-Dichloro-phenylamino)-6-fluoro-3H-benzoimidazole-4-carboxylic acid]
5 | 0.8 | Cc1c(F)cccc1Nc1nc2cccc(C(=O)O)c2[nH]1 [Example 3]
